Assay results: US9040568B2, “Pharmaceutical compositions for the treatment of pain” (AbbVie Inc., priority 2009, dated 2015)

Test system: emesis in ferrets
Assay: Emesis in ferrets
Type: in vivo, ferret
Experimental: Fasted male ferrets (Marshall BioResources, North Rose, N.Y.) weighing between 1.0 and 1.7 kg are used to determine the emetic effects. α4β2 PAM (Compound 1) was administered first and thirty minutes later, Compound A was administered at various doses. […] The percentage of animals that experienced emesis at a given dose was recorded.

What does the source list for `N#Cc1cccc(-c2nc(-c3cccnc3)no2)c1` [Example 1, 3-(3-(pyridin-3-yl)-1,2,4-oxadiazol-5-yl)benzonitrile]?
effect on the dose response curve of Compound A for emesis (Compound 1 3.5 μmol/kg with various doses of Compound A): does not shift the dose response curve of Compound A; emesis (alone): does not cause emesis
